“And” between values parts separate entries of the source, which are not always exact repeats. Identical values can stand only once.
Tests used:
Type in all cases: cell-based, human
[1] = system: WT1; assay: Confocal microscopy of WT1 localization in PMA-treated HEL cells; settings: PMA 100 nM, at 5 h and 8 h
Description: HEL 92.1.7 cells were seeded at ˜1×10^5 cells/ml in 2 ml normal growth media (RPMI 1640, 10% FBS) in 6-well plates containing Poly-L-lysine coated coverslips. Cells were grown at 37° C. for 24 h prior to incubating cells with 100 nM PMA for 0, 1, 5, 8, 16 and 24 h. Thereafter, cells were fixed in 3.4% paraformaldehyde and permeabilized with 0.2% Triton X-100 for 10 min on ice, after which cells were immunolabelled with anti-WT1 (1:1000 of 2 μg/μl stock) and AlexaFluor488 conjugated anti-rabbit, followed by counterstaining with DAPI (1 μg/ml in H2O). Images were obtained using Carl Zeiss Lazer Scanning System LSM510 and Zeiss LSM Imaging software for acquiring multi-channel images with filters appropriate for enhanced DAPI & AlexaFluor488.

[2] = system: Prm1-directed luciferase expression; assay: Effect of PMA, PD98059 or Vitamin D3 on Prm1-directed luciferase expression in HEL cells
Description: HEL and EA.hy 926 cells were co-transfected with the various pGL3Basic-recombinant plasmids (2 mg), encoding firefly luciferase, along with pRL-TK (200 ng), encoding renilla luciferase, using DMRIE-C® transfection reagent. HEK293, WI-38, and 1° hAoSMCs were co-transfected with the pGL3Basic-recombinant plasmids (2 mg), along with pRL-TK (200 ng), using Effectene transfection reagent. In all cases, cells co-transfected with pRL-TK (200 ng) in the presence of either the pGL3Control vector (firefly luciferase gene under the control of the SV40 promoter; 2 mg) or the promoter-less pGL3Basic empty vector (2 mg), which served as positive and negative controls, respectively. […] Relative firefly to renilla luciferase activity (arbitrary units) was calculated as a ratio and was expressed in relative luciferase units (RLU). To investigate the effect of over-expression of exon 5 (+ or −) or KTS (+ or −) isoforms of WT1 on Prm1-directed gene expression, HEL cells were co-transfected with either pGL3b:Prm1 or pGL3b:Prm1D (1.5 μg) plus 200 ng of pRL-TK along with either pcDNA3:WT1 (+/+), pcDNA3:WT1 (+/−), pcDNA3:WT1 (−/+), pcDNA3:WT1 (−/−) (0.5 μg), or as a control, pcDNA3 (0.5 μg). […] The plasmid pCMV5-NAB1, containing the entire coding sequence for NAB1, was generously donated by Dr. Gerald Thiel, University of Saarland Medical Center, Homburg, Germany, and has been described previously (Thiel et al., 2000). To investigate the effect of over-expression of NAB1 on the PMA-mediated induction of Prm1-directed gene expression, HEL cells were transiently co-transfected with pGL3b:Prm1 (2 μg) plus pRL-TK (200 ng) along with either pCMV5 (control) or pCMV:NAB1 (1 μg).

[3] = system: WT1; assay: Immunoblot analysis of WT1 expression in HEL cells; settings: PMA 100 nM over 48 h
Description: The expression of WT1, Sp1, Egr1, NF-E2, GATA-1 and Ets-1 proteins in HEL cells was confirmed by western blot analysis. Briefly, whole cell protein was resolved by SDS-PAGE (10% acrylamide gels) and transferred to polyvinylidene difluoride (PVDF) membrane according to standard methodology. Membranes were screened using anti-WT1, anti-NF-E2, anti-Sp1, anti-Egr1, anti-GATA-1 or anti-Ets-1 sera in 5% non fat dried milk in 1×TBS (0.01 M Tris/HCl, 0.1 M NaCl) for 2 h at room temperature followed by washing and screening using goat anti-rabbit horseradish peroxidase (sc-2204) followed by chemiluminescence detection, as described by the supplier (Roche Applied Science). For PMA studies, HEL cells were pre-incubated for the indicated amount of time with 100 nM PMA, with 10 μM PD98059, with 100 nM PMA plus 10 μM PD98059 or, as a control, with vehicle [0.1% (v/v) DMSO]. Whole cell protein (60 μg per lane) was resolved by SDS-PAGE (10% acrylamide gels) and transferred to polyvinylidene difluoride (PVDF) membrane according to standard methodology. […] Cells were harvested 48 hr post-transfection and aliquots ([…]) were analysed by SDS-PAGE/western blot analysis. As a positive control for hTF expression, […] of a commercial control Tissue-Factor Biomass was also analysed. […]

SMILES: CCCCCCCCCCCCCC(=O)O[C@@H]1[C@@H](C)[C@@]2(O)[C@@H](C=C(CO)C[C@]3(O)C(=O)C(C)=C[C@@H]23)[C@@H]2C(C)(C)[C@]12OC(C)=O [PMA, phorbol 12-myristate 13-acetate]
- Intracellular localization of WT1 [1]: redistribution of WT1 to the cytosolic fraction
- Time of incubation to significantly increased Prm1-directed luciferase activity ([2]; PMA 100 nM, 0-48 h): ≤ 4 h
- Increase in Prm1-directed luciferase expression ([2]; PMA 100 nM, 16 h, vs vehicle): 4 fold and 4.3 fold
- Effect on luciferase expression directed by the Prm1K sub-fragment ([2]; PMA alone 100 nM, 16 h): neither PMA alone (p=0.4721) nor PMA plus PD98059 (p=0.2693) had any significant effect
- WT1 protein expression [3]: did not substantially alter the expression of the WT1 doublet
